PubChem BioAssay (NCI)
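Where inhibition never reached the appropriate level, the endpoint shown equals the highest concentration tested. Otherwise, values were interpolated linearly from a five-concentration, 48-hour dose response in 96-well plates. Abbreviation: GI50, concentration required for 50% inhibition of growth. At the TGI there is no net growth.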

What was measured:
Assay in all cases: growth of human tumour cells (NCI), 48 h
MALME-3M melanoma = test system: MALME-3M melanoma
KM12 colon = test system: KM12 colon
HCT-116 colon = test system: HCT-116 colon
TK-10 renal = test system: TK-10 renal
SF-295 CNS = test system: SF-295 CNS
A549 NSCLC = test system: A549 NSCLC
UO-31 renal = test system: UO-31 renal
NCI-H522 lung = test system: NCI-H522 lung
MOLT-4 leukemia = test system: MOLT-4 leukemia
NCI-H460 lung = test system: NCI-H460 lung
NCI-H23 lung = test system: NCI-H23 lung
OVCAR-5 ovarian = test system: OVCAR-5 ovarian
SNB-19 CNS = test system: SNB-19 CNS
MDA-MB-435 = test system: MDA-MB-435
HOP-92 NSCLC = test system: HOP-92 NSCLC
HL-60(TB) leukemia = test system: HL-60(TB) leukemia
A498 renal = test system: A498 renal
SR leukemia = test system: SR leukemia
HCT-15 colon = test system: HCT-15 colon
CAKI-1 renal = test system: CAKI-1 renal
SF-539 CNS = test system: SF-539 CNS
K-562 leukemia = test system: K-562 leukemia
SK-MEL-2 melanoma = test system: SK-MEL-2 melanoma
PC-3 prostate = test system: PC-3 prostate
MDA-MB-231 breast = test system: MDA-MB-231 breast
786-0 renal = test system: 786-0 renal
RXF 393 renal = test system: RXF 393 renal
EKVX NSCLC = test system: EKVX NSCLC
NCI-H226 lung = test system: NCI-H226 lung
IGROV1 ovarian = test system: IGROV1 ovarian
OVCAR-4 ovarian = test system: OVCAR-4 ovarian
DU-145 prostate = test system: DU-145 prostate
T-47D breast = test system: T-47D breast
ACHN renal = test system: ACHN renal
SN12C renal = test system: SN12C renal
RPMI-8226 leukemia = test system: RPMI-8226 leukemia
OVCAR-8 ovarian = test system: OVCAR-8 ovarian
SNB-75 CNS = test system: SNB-75 CNS
UACC-257 melanoma = test system: UACC-257 melanoma
MCF7 breast = test system: MCF7 breast
OVCAR-3 ovarian = test system: OVCAR-3 ovarian
NCI/ADR-RES ovarian = test system: NCI/ADR-RES ovarian
BT-549 breast = test system: BT-549 breast
SK-OV-3 ovarian = test system: SK-OV-3 ovarian
SK-MEL-28 melanoma = test system: SK-MEL-28 melanoma
SW-620 colon = test system: SW-620 colon
UACC-62 melanoma = test system: UACC-62 melanoma
HT29 colon = test system: HT29 colon
LOX IMVI melanoma = test system: LOX IMVI melanoma
HS 578T breast = test system: HS 578T breast
CCRF-CEM leukemia = test system: CCRF-CEM leukemia
COLO 205 colon = test system: COLO 205 colon
SF-268 CNS = test system: SF-268 CNS
U251 CNS = test system: U251 CNS
HOP-62 NSCLC = test system: HOP-62 NSCLC
SK-MEL-5 melanoma = test system: SK-MEL-5 melanoma
HCC-2998 colon = test system: HCC-2998 colon
M14 melanoma = test system: M14 melanoma

CN(C)S(=O)(=O)c1cccc(C(=O)Nc2nc(-c3ccc(F)c(F)c3)cs2)c1
GI50 (MALME-3M melanoma): 18.6 µM | TGI (MALME-3M melanoma): 99.4 µM | GI50 (KM12 colon): 24.2 µM | TGI (KM12 colon): > 100 µM | GI50 (HCT-116 colon): 7.62 µM | TGI (HCT-116 colon): > 100 µM | GI50 (TK-10 renal): 18.1 µM | TGI (TK-10 renal): > 100 µM | GI50 (SF-295 CNS): 2.58 µM | TGI (SF-295 CNS): 26.4 µM | GI50 (A549 NSCLC): 13.2 µM | TGI (A549 NSCLC): > 100 µM | GI50 (UO-31 renal): 9.09 µM | TGI (UO-31 renal): > 100 µM | GI50 (NCI-H522 lung): 5.71 µM | TGI (NCI-H522 lung): > 100 µM | GI50 (MOLT-4 leukemia): 3.52 µM | TGI (MOLT-4 leukemia): > 55.2 µM | GI50 (NCI-H460 lung): 12.8 µM | TGI (NCI-H460 lung): > 100 µM | GI50 (NCI-H23 lung): 10.3 µM | TGI (NCI-H23 lung): > 100 µM | GI50 (OVCAR-5 ovarian): 98.4 µM | TGI (OVCAR-5 ovarian): > 100 µM | GI50 (SNB-19 CNS): 35.4 µM | TGI (SNB-19 CNS): > 100 µM | GI50 (MDA-MB-435): 5.41 µM | TGI (MDA-MB-435): > 100 µM | GI50 (HOP-92 NSCLC): 9.41 µM | TGI (HOP-92 NSCLC): > 74.3 µM | GI50 (HL-60(TB) leukemia): 6.08 µM | TGI (HL-60(TB) leukemia): > 100 µM | GI50 (A498 renal): 16.9 µM | TGI (A498 renal): > 100 µM | GI50 (SR leukemia): 6.17 µM | TGI (SR leukemia): > 100 µM | GI50 (HCT-15 colon): > 40.4 µM | TGI (HCT-15 colon): > 100 µM | GI50 (CAKI-1 renal): 10.9 µM | TGI (CAKI-1 renal): > 75.9 µM | GI50 (SF-539 CNS): 15.3 µM | TGI (SF-539 CNS): 58 µM | GI50 (K-562 leukemia): 5.1 µM | TGI (K-562 leukemia): > 100 µM | GI50 (SK-MEL-2 melanoma): 19.4 µM | TGI (SK-MEL-2 melanoma): > 100 µM | GI50 (PC-3 prostate): 5.96 µM | TGI (PC-3 prostate): > 100 µM | GI50 (MDA-MB-231 breast): 20.6 µM | TGI (MDA-MB-231 breast): > 100 µM | GI50 (786-0 renal): 18.8 µM | TGI (786-0 renal): 90.4 µM | GI50 (RXF 393 renal): 12.4 µM | TGI (RXF 393 renal): > 81.5 µM | GI50 (EKVX NSCLC): 4 µM | TGI (EKVX NSCLC): > 76.2 µM | GI50 (NCI-H226 lung): 9.32 µM | TGI (NCI-H226 lung): 98.3 µM | GI50 (IGROV1 ovarian): 28 µM | TGI (IGROV1 ovarian): > 96.4 µM | GI50 (OVCAR-4 ovarian): 4.62 µM | TGI (OVCAR-4 ovarian): > 84.1 µM | GI50 (DU-145 prostate): 25.9 µM | TGI (DU-145 prostate): > 100 µM | GI50 (T-47D breast): 3.77 µM | TGI (T-47D breast): > 100 µM | GI50 (ACHN renal): 10.5 µM | TGI (ACHN renal): > 100 µM | GI50 (SN12C renal): 25.9 µM | TGI (SN12C renal): > 100 µM | GI50 (RPMI-8226 leukemia): 4.51 µM | TGI (RPMI-8226 leukemia): > 29.4 µM | GI50 (OVCAR-8 ovarian): 8.28 µM | TGI (OVCAR-8 ovarian): > 100 µM | GI50 (SNB-75 CNS): 4.96 µM | TGI (SNB-75 CNS): > 60.8 µM | GI50 (UACC-257 melanoma): 6.24 µM | TGI (UACC-257 melanoma): > 100 µM | GI50 (MCF7 breast): 6.01 µM | TGI (MCF7 breast): > 65 µM | GI50 (OVCAR-3 ovarian): 18.4 µM | TGI (OVCAR-3 ovarian): > 95.4 µM | GI50 (NCI/ADR-RES ovarian): 5.32 µM | TGI (NCI/ADR-RES ovarian): > 100 µM | GI50 (BT-549 breast): 3.88 µM | TGI (BT-549 breast): > 27.4 µM | GI50 (SK-OV-3 ovarian): 35.7 µM | TGI (SK-OV-3 ovarian): > 100 µM | GI50 (SK-MEL-28 melanoma): 18.8 µM | TGI (SK-MEL-28 melanoma): > 100 µM | GI50 (SW-620 colon): 47.9 µM | TGI (SW-620 colon): > 100 µM | GI50 (UACC-62 melanoma): 7.81 µM | TGI (UACC-62 melanoma): > 100 µM | GI50 (HT29 colon): 14 µM | TGI (HT29 colon): > 100 µM | GI50 (LOX IMVI melanoma): 24 µM | TGI (LOX IMVI melanoma): > 100 µM | GI50 (HS 578T breast): 14.2 µM | TGI (HS 578T breast): 91 µM | GI50 (CCRF-CEM leukemia): 10.7 µM | TGI (CCRF-CEM leukemia): > 100 µM | GI50 (COLO 205 colon): 35.6 µM | TGI (COLO 205 colon): > 100 µM | GI50 (SF-268 CNS): 13.9 µM | TGI (SF-268 CNS): > 100 µM | GI50 (U251 CNS): 11.5 µM | TGI (U251 CNS): > 74 µM | GI50 (HOP-62 NSCLC): 12.7 µM | TGI (HOP-62 NSCLC): > 100 µM | GI50 (SK-MEL-5 melanoma): 3.81 µM | TGI (SK-MEL-5 melanoma): > 25.2 µM | GI50 (HCC-2998 colon): 58.9 µM | TGI (HCC-2998 colon): > 100 µM | GI50 (M14 melanoma): 23.5 µM | TGI (M14 melanoma): > 100 µM
